US10168342B2, “Lipid probes and uses thereof” (THE SCRIPPS RESEARCH INSTITUTE, priority 2015, dated 2019)
Read-outs that look alike come from different tables or passages of the source.

How the values were obtained:
human NUCB1 = biological target: T1, human NUCB1 (Homo sapiens, UniProt Q02818); test: In vitro gel-based competition of AEA-DA probe labeling of NUCB1; format: binding; details: for IC50: AEA-DA 5 μM, recombinant NUCB1 0.25 μM doped into HEK293T lysates, percent of maximal competition, read-out: IC50, blockade of AEA-DA probe labeling of NUCB1
T1 construct: made in house; host or cells: Escherichia coli BL21(DE3)
T1 sequence (Q02818 27-461): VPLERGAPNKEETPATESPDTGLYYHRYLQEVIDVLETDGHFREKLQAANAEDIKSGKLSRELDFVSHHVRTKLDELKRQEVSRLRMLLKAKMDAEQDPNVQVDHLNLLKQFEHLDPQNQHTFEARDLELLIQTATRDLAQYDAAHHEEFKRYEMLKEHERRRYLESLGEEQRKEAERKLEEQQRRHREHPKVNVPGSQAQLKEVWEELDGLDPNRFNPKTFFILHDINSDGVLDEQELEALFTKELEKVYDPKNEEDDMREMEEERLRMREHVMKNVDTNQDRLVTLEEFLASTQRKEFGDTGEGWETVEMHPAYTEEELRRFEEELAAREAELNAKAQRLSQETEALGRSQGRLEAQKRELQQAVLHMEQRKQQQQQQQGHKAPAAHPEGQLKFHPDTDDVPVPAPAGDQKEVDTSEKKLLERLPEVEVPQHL
Experimental: Human NUCB1 lacking the N-terminal signal sequence (M1-A26) was subcloned into pET45b(+) vector (Novagen) using the following PCR primers for amplification: 5′-CATCAATTGTGTGCCCCTGGAGAGAG-3′ and 5′-AGCAAGCTTTACAGATGTTGGGGCACC-3′. Following transformation of Escherichia coli strain BL21(DE3) with hNucb1ΔSSpET45b(+), a single colony was isolated and grown in Terrific Broth containing carbenicillin (100 mg/L) at 37° C. to an OD600 of 0.8. Protein expression was induced with IPTG (1.0 mM) and the cells were incubated at 20° C. with shaking overnight. After centrifugation, cells pellets were resuspended in cold buffer containing HEPES (0.05M), NaCl (0.03 M), imidazole (5.0 mM), DNase (0.1 mg/mL), MgCl2 (1.0 mM), CaCl2 (1.0 mM) and EDTA-free Complete Protease Inhibitor Cocktail and lysed using a microfluidizer. […] The suspension was applied to a column and the retained resin was washed with HEPES buffer containing 500 mM NaCl until the eluent was clean of DNA and protein (A280/260) and then with HEPES buffer containing 10 mM imidazole (5 mL/1 mL resin). Protein was then slowly eluted with HEPES buffer containing 50 mM imidazole in 1.0 mL fractions and the combined fractions containing hNUCB1 were passed through a Sephadex G-25M column to remove imidazole and concentrated in an Amicon centrifugal filter device (Millipore). These conditions produced hNUCB1 at approximately 10 mg/L of culture; however, several lower molecular weight fragments were also present in this preparation. hNUCB1 was further purified by size exclusion chromatography.
Cell lysates (1.0 mg/mL), the indicated lipid probe (2.5 or 5 μM) and, for recombinant NUCB1 competition experiments, purified hNUCB1 (250 nM) and CaCl2 (100 μM) were mixed on ice. DMSO or competitors were then added to the proteome mixture (50 μM) in 96-well plates and each sample was incubated for 15 min at 37° C. The samples were then irradiated with UV light and subjected to previously described click chemistry conditions. As before, each reaction was quenched with 4×SDS loading buffer (17 μL), and proteins were resolved using SDS-PAGE (10% acrylamide gel) and analyzed by in-gel fluorescent scanning on a Hitachi FMBIO-II flatbed fluorescence scanner. NUCB1 competition was quantitatively assessed by measuring the fluorescent intensity of the corresponding gel band using ImageJ 1.48v and normalizing this value by a non-competed gel band to control for loading differences.
Metabolite data are shown as mean±SEM (n=3-5/group). Differences between two groups were determined using Student's t test (unpaired, two-tailed) and significance was denoted for P values<0.05.

[1] = biological target: T2, AEA-DA lipid probe targets in Neuro2a cells (Mus musculus, UniProt Q07646)
T2 sequence (Q07646 1-335): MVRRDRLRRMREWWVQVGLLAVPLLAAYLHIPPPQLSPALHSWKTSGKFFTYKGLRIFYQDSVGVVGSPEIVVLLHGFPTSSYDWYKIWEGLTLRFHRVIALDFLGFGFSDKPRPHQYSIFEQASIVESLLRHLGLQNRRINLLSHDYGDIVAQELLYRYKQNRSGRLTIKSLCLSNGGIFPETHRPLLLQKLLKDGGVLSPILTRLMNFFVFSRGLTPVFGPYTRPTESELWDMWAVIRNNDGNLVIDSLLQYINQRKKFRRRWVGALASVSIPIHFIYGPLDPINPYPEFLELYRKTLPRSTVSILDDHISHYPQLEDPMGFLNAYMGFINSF

[2] = tested on: PGE2 and TXB2 production in PMA-stimulated A549 cells; test: Prostaglandin production in A549 cells; format: cell-based, human; details: 10 μM, 30 min pre-treatment, then PMA
Experimental: The old media was removed from each plate and cells were washed with DPBS (2×3 mL) before adding freshly prepared media solutions containing vehicle or compound (3 mL/plate). After incubating for 30 min at 37° C., cells were then stimulated with PMA (10 nM) for 8 h. The media from the cells was then transferred to glass vials containing MS internal standards [PGE2-d9 (10 pmol), PGD2-d9 (10 pmol) and TXB2-d4 (10 pmol)], centrifuged (1,500×g, 5 min) to remove detached cells and then loaded onto preequilibrated reversed phase SPE cartridges (Phenomenex, Strata-X 33 μm, 60 mg/3 mL). After washing cartridges with 5% MeOH/H2O (3 mL), analytes were eluted with MeOH (1.0 mL) and the eluent was concentrated under a stream of N2. Concentrated samples were stored at −80° C. until the day of analysis when they were reconstituted in Mobile Phase A [100 μL, 30% CH3CN in H2O (0.1% AcOH)]. Media extracts were analyzed by LC/MS/MS with LC separation performed on a Kinetex reversed phase C18 column (50×4.6 mm, 2.6 μM particle size, 100Å). Mobile phase gradients were identical to those described above for prostamide analysis and the composition Mobile phases A and B differed only by lacking NH4OAc (5 mM). The following MS parameters were used to measure the indicated metabolites by MRM (precursor ion, product ion, collision energy, polarity): PGE2 (351, 271, 12, negative), PGE2-d9 (360, 280, 12, negative), TXB2 (369, 169, 6, negative), TXB2-d4 (373, 173, 6, negative). PGE2 and TXB2 levels were quantified by determining peak areas in relation to their deuterated internal standard.

CCCCC/C=C\C/C=C\C/C=C\C/C=C\CCCC(=O)NCCO [AEA, anandamide, reference compound]
competition of AEA-DA probe labeling of recombinant NUCB1 by lipids (human NUCB1; AEA-DA 5.0 μM, lipids 20×, NUCB1-transfected HEK293T lysates): blocked | SILAC ratio Mest ([1]; competitor 200 μM): 1.5

O=C(/C=C/c1cccnc1)NCCCCC1CCN(C(=O)c2ccccc2)CC1 [FK-866, reference compound]
PGE2 synthesis from endogenous AA [2]: no effect | TXB2 synthesis from endogenous AA [2]: complete suppression | SILAC ratio Mest ([1]; competitor 25 μM): 1.2

CN1CCN(C(=O)c2c(-c3ccccc3)c3cc([N+](=O)[O-])ccc3n2C)CC1 [KML110, (1-Methyl-5-nitro-3-phenyl-1H-indol-2-yl)(4-methylpiperazin-1-yl)methanone]
IC50 (human NUCB1): 9.6 µM | PGE2 synthesis from endogenous AA [2]: suppress | TXB2 synthesis from endogenous AA [2]: suppress | SILAC ratio Mest ([1]; competitor 25 μM): 1.3

CN1CCN(C(=O)c2[nH]c3ccc([N+](=O)[O-])cc3c2-c2ccccc2)CC1 [MJN228, (4-Methylpiperazin-1-yl)(5-nitro-3-phenyl-1H-indol-2-yl)methanone]
IC50 (human NUCB1): 3.3 µM | PGE2 synthesis from endogenous AA [2]: suppress | TXB2 synthesis from endogenous AA [2]: suppress | SILAC ratio Mest ([1]; competitor 10 μM): 1.2 | SILAC ratio Mest ([1]; competitor 25 μM): 1.4 | SILAC ratio Mest ([1]; competitor 50 μM): 1.3 | SILAC ratio Mest ([1]; competitor 100 μM): 1.6

C=CCN(C)CCCCCCOc1ccc(C(=O)c2ccc(Br)cc2)c(F)c1 [Ro 48-8071, reference compound]
SILAC ratio Mest ([1]; competitor 25 μM): 1.2
